{"source": "patent US20040208864A1", "about": "“Methods of improving health-related quality of life in individuals with systemic lupus erythematosus” (priority 2002, published 2004)", "key": {"[1]": {"test_system": "SLE patients", "assay": "Documented renal flares, Phase III study", "assay_type": "in vivo, human", "procedure": "The primary endpoint was time to renal flare. A renal flare was defined as a significant, reproducible increase in serum creatinine, urine protein or blood in the urine as described in Example 2. The secondary endpoint was time to treatment with HDCC. HDCC was defined as any dose of cyclophosphamide or an increase in prednisone of 15 mg/day or higher resulting in a final dose greater than 20 mg/day.\nThe incidences of renal flares in patients of both sustained reduction group and the other group were documented and the results are shown in Table 7 for Phase III and Table 8 for Phase II/III."}, "[2]": {"test_system": "SLE patients", "assay": "SF-36 health-related quality of life, Phase III (90-09) trial of LJP 394 vs placebo", "assay_type": "in vivo, human", "conditions": "for Longitudinal differences in HRQOL (SF-36 domain scores) drug-treated vs placebo-treated: various time points, all patients", "procedure": "Patients were treated with weekly doses of 100 mg of LJP 394 or with placebo. Patients were also permitted to receive certain other treatments including some but not all immunosuppressive drugs using a definition similar to Example 2. This randomized, double-blind, placebo-controlled study was conducted at more than 70 major medical centers in North America and Europe. Patients could remain in the study for up to 92 weeks.\nThe prospectively defined analysis groups were the intent-to-treat population and patients with impaired renal function. The intent-to-treat population was defined as patients with high-affinity antibodies to LJP 394. The patients with high-affinity antibodies to LJP 394 were those with a Kd′<0.8 mg/ml. Patients with impaired renal function were defined as having a serum creatinine level of 1.5 mg/dL to 3.5 mg/dL at baseline. In general, patients with impaired renal function are at greater risk of progressing to renal flare, kidney failure, and dialysis.\nComplement changes were evaluated by determining the mean change from baseline in the complement protein C3 that indicates overall complement consumption due to active inflammation. Antibody changes were evaluated by determining the mean percent change of antibodies to dsDNA from baseline. Patients' assessments of disease activity and health-related quality of life were measured on a regular basis as well as at the time of, and 30 days following, a documented renal flare.\nTwo studies (Phase II/III or 90-05, and Phase III or 90-09) were conducted as described in Examples 1-2 and 12. […] Patients completed the SF-36® assessment at entry, followed by three additional time points in the trial depending on how long they participated. […] The Phase II/III trial enrolled 198 lupus patients with high-affinity antibodies who were treated for up to 18 months.\nAs described above in the detailed description of the invention, HRQOL is an assessment of a patient's sense of physical and mental well-being or how they feel. In the Phase II/III and Phase III studies, HRQOL was measured by a standard scoring instrument called the Medical Outcomes Study 36-Item Short Form (SF-36′). The SF-36® Health Survey is a standardized tool used in clinical research to measure a patient's assessment of quality of life outcomes related to disease and disease treatment. The Survey asked 36 questions related to how well a patient can perform day-to-day activities and how they feel emotionally. The answers were then reported as scores in eight domains. These domains are physical functioning, role-physical, bodily pain, general health, vitality, social functioning, role-emotional and mental health. SF-36@ was measured in both Phase III and II/III."}}, "note": "Entries after “also recorded” stand apart in the source; their conditions may differ.", "data": [{"substance": "abetimus sodium (sense GTGTGTGTGTGTGTGTGTGT; antisense CACACACACACACACACACA; sense: DNA, backbone not given here; antisense: DNA, backbone and methylation of C not given here; four deoxynucleotide duplexes bound to triethylene glycol valency platform) [LJP 394, tetravalent conjugate: four (CA)10.(TG)10 double-stranded 20-mer oligonucleotides on a triethylene glycol based valency platform]", "values": [{"measurement": "# Renal flares in Other patients", "setting": "[1]", "value": 14}, {"measurement": "# Renal flares in patients with sustained reduction", "setting": "[1]", "value": 3}, {"measurement": "Mean SF-36 domain scores after renal flare compared with placebo", "setting": "[2]; after renal flare", "value": "remained better than placebo patients; also recorded: remained better than placebo patients'"}, {"measurement": "Mean SF-36 domain scores before renal flare compared with placebo", "setting": "[2]; before renal flare", "value": "improved HRQOL scores before the renal flare compared with placebo; also recorded: higher for LJP394 treated patients in all domains"}, {"measurement": "SF-36 domain score changes pre/post renal flare compared with placebo", "setting": "[2]; pre vs post renal flare", "value": "seven of eight domains; also recorded: better HRQOL compared with Placebo patients in all domains except physical functioning"}, {"measurement": "Longitudinal differences in HRQOL (SF-36 domain scores) drug-treated vs placebo-treated", "setting": "[2]", "value": "not significantly different"}, {"measurement": "Longitudinal differences in HRQOL (SF-36 domain scores) drug-treated vs placebo-treated", "setting": "[2]; listed as Riquent™", "value": "No substantive differences"}]}]}
